Test results taken from patent US6964949B2, “Pharmaceutical compositions for promoting the growth of gram-positive bacilli and increasing the acidity in the vagina and the use thereof” (Shanghai Jiao Da Onlly Co., Ltd., priority 2000, dated 2005).

Tests used:
Format in all cases: cell-based
Gram-negative cocci [1] = assay: Experiment Example 4: 17.0% maltose or sucrose, specimen culture, Gram smear; details: 17.0% saccharide, 1.0% yeast extract, 1.6% xanthan gum, pH 6.2, candle jar, 37° C.
Procedure: (§1) • (1)The preparation of the compositions: Maltose and sucrose were used respectively to prepare the following composition in the methods mentioned above: • A. 17.0% maltose, 1.0% yeast extract, 1.6% xanthan gum, pH adjusted to 6.2; • B. 17.0% sucrose, 1.0% yeast extract, 1.6% xanthan gum, pH adjusted to 6.2; • (2) The preparation of the test tubes: Compositions prepared above were filled into the test tubes, with each tube containing 5 ml, sterilized, and kept until use for experiment. • (3) Specimen suspension: Vaginal secretion was taken from one of the patients suffering from typical bacterial vaginosis with a cotton swab, then the swab was washed in 2 ml sterilized Trypcase-soy Broth immediately, and thus the specimen suspension was ready. […] Then the tubes were placed in a candle jar and cultivated at 37° C. After 24 hours and 48 hours' culture, culture samples were taken respectively from each of the tubes, then the Gram smears of the samples were observed and the pH values of culture samples were tested.

Gram-positive bacilli [2] = assay: as above; details: 17.0% saccharide, 1.0% yeast extract, 1.6% xanthan gum, pH 6.2, candle jar, 37° C.
Procedure: as §1

Gram-negative bacilli [3] = assay: as above; details: 17.0% saccharide, 1.0% yeast extract, 1.6% xanthan gum, pH 6.2, candle jar, 37° C.
Procedure: as §1

Gram-positive cocci [4] = assay: as above; details: 17.0% saccharide, 1.0% yeast extract, 1.6% xanthan gum, pH 6.2, candle jar, 37° C.
Procedure: as §1

Gram-negative cocci [5] = assay: Experiment Example 3: 2.5% maltose or sucrose, specimen culture, Gram smear; details: 2.5% saccharide, 1.0% yeast extract, 1.6% xanthan gum, pH 6.2, candle jar, 37° C.
Procedure: as §1, with “• (1) The” for “• (1)The”, “composition according to” for “composition in”, “A. 2.5%” for “A. 17.0%”, “B. 2.5%” for “B. 17.0%”, “sucrose, 1.0” for “sucrose, 1.0%”, “Compositions as” for “Compositions”

Gram-positive bacilli [6] = assay: as above; details: 2.5% saccharide, 1.0% yeast extract, 1.6% xanthan gum, pH 6.2, candle jar, 37° C.
Procedure: as §1, with “• (1) The” for “• (1)The”, “composition according to” for “composition in”, “A. 2.5%” for “A. 17.0%”, “B. 2.5%” for “B. 17.0%”, “sucrose, 1.0” for “sucrose, 1.0%”, “Compositions as” for “Compositions”

Gram-negative bacilli [7] = assay: as above; details: 2.5% saccharide, 1.0% yeast extract, 1.6% xanthan gum, pH 6.2, candle jar, 37° C.
Procedure: as §1, with “• (1) The” for “• (1)The”, “composition according to” for “composition in”, “A. 2.5%” for “A. 17.0%”, “B. 2.5%” for “B. 17.0%”, “sucrose, 1.0” for “sucrose, 1.0%”, “Compositions as” for “Compositions”

Gram-positive cocci [8] = assay: as above; details: 2.5% saccharide, 1.0% yeast extract, 1.6% xanthan gum, pH 6.2, candle jar, 37° C.
Procedure: as §1, with “• (1) The” for “• (1)The”, “composition according to” for “composition in”, “A. 2.5%” for “A. 17.0%”, “B. 2.5%” for “B. 17.0%”, “sucrose, 1.0” for “sucrose, 1.0%”, “Compositions as” for “Compositions”

[9] = system: vaginal secretion specimen of a patient suffering from typical bacterial vaginosis; assay: Experiment Example 4: pH of culture samples (production of acids); details: 17.0% saccharide, 1.0% yeast extract, 1.6% xanthan gum, pH 6.2, candle jar, 37° C.
Procedure: as §1

Gram-positive bacilli [10] = assay: Experiment Example 2: comparison of saccharides, specimen culture, Gram smear; details: 10.0% saccharide, 1.0% yeast extract, 1.6% xanthan gum (dextrin 0.5%, starch none), pH 6.2, candle jar, 37° C.
From the text: (§2) • (1)The preparation of the compositions: Different saccharides were used respectively to prepare the following compositions according to the methods mentioned above: glucose, fructose, galactose, mannose, maltose, sucrose, lactose, lactulose, mycose, cellobiose, melibiose, melitose, malto-oligosaccharide, isomaltooligosaccharide and fructooligosaccharide, dextrin, starch, and glycogen: • A. 5% glucose, 1.0% yeast extract, 1.6% xanthan gum, pH adjusted to 6.2; • B. 5% fructose, 1.0% yeast extract, 1.6% xanthan gum, pH adjusted to 6.2; • C. 5% galactose, 1.0% yeast extract, 1.6% xanthan gum, pH adjusted to 6.2; • D. 5% mannose, 1.0% yeast extract, 1.6% xanthan gum, pH adjusted to 6.2; • E. 10.0% maltose, 1.0% yeast extract, 1.6% xanthan gum, pH adjusted to 6.2; • F. 10.0% sucrose, 1.0% yeast extract, 1.6% xanthan gum, pH adjusted to 6.2; • G. 10.0% lactose, 1.0% yeast extract, 1.6% xanthan gum, pH adjusted to 6.2; • H. 10.0% lactulose, 1.0% yeast extract, 1.6% xanthan gum, pH adjusted to 6.2; • I. 10.0% cellobiose, 1.0% yeast extract, 1.6% xanthan gum, pH adjusted to 6.2; • J. 10.0% mycose, 1.0% yeast extract, 1.6% xanthan gum, pH adjusted to 6.2; • K. 10.0% melibiose, 1.0% yeast extract, 1.6% xanthan gum, pH adjusted to 6.2; • L. 10.0% melitose, 1.0% yeast extract, 1.6% xanthan gum, pH adjusted to 6.2; • M. 10.0% maltooligosaccharide, 1.0% yeast extract, 1.6% xanthan gum, pH adjusted to 6.2; • N. 10.0% isomaltooligosaccharide, 1.0% yeast extract, 1.6% xanthan gum, pH adjusted to 6.2; • O. 10.0% fructooligosaccharide, 1.0% yeast extract, 1.6% xanthan gum, pH adjusted to 6.2; • P. 10.0% dextrin, 1.0% yeast extract, 0.5% xanthan gum, pH adjusted to 6.2; • Q. 10.0% starch, 1.0% yeast extract, pH adjusted to 6.2; • R. 10.0% glycogen, 1.0% yeast extract, 1.6% xanthan gum, pH adjusted to 6.2. • (2)The preparation of the test tubes: The compositions prepared above were filled into test tubes, with each tube containing 5 ml, sterilized, and kept until use for experiment. • (3) Specimen suspension: Vaginal secretion was taken from one of the patients suffering from typical bacterial vagmosis with a cotton swab, then the swab was washed in 2 ml sterilized Trypcase-soy Broth immediately, and thus the specimen suspension was ready. […] Then the tubes were placed in a candle jar and cultivated at 37° C. After 24 hours and 48 hours' culture, culture samples were taken respectively from each of the tubes, then the Gram smears of the samples were observed and the pH values of culture samples were tested. […] Meanwhile the pH values in most of the composition tubes decreased to different levels. […] And maltose and sucrose exert better effect in promoting the growth of Gram-positive bacilli and the production of acids than that of the other kinds of oligosaccharides.

Gram-negative bacilli [11] = assay: as above; details: 10.0% saccharide, 1.0% yeast extract, 1.6% xanthan gum (dextrin 0.5%, starch none), pH 6.2, candle jar, 37° C.
From the text: as §2

Gram-positive cocci [12] = assay: as above; details: 10.0% saccharide, 1.0% yeast extract, 1.6% xanthan gum (dextrin 0.5%, starch none), pH 6.2, candle jar, 37° C.
From the text: as §2

| Compound | Bacteria G − c (Gram-negative cocci), 24 hours culture (Gram-negative cocci [1]) | Bacteria G − c (Gram-negative cocci), 48 hours culture (Gram-negative cocci [1]) | Bacteria G + b (Gram-positive bacilli), 24 hours culture (Gram-positive bacilli [2]) | Bacteria G + b (Gram-positive bacilli), 48 hours culture (Gram-positive bacilli [2]) | Bacteria G − b (Gram-negative bacilli), 48 hours culture (Gram-negative bacilli [3]) | Bacteria G + c (Gram-positive cocci), 24 hours culture (Gram-positive cocci [4]) | Bacteria G + c (Gram-positive cocci), 48 hours culture (Gram-positive cocci [4]) | Bacteria G − c (Gram-negative cocci), 24 hours-culture (Gram-negative cocci [5]) | Bacteria G − c (Gram-negative cocci), 48 hours-culture (Gram-negative cocci [5]) | Bacteria G + b (Gram-positive bacilli), 24 hours-culture (Gram-positive bacilli [6]) | Bacteria G + b (Gram-positive bacilli), 48 hours-culture (Gram-positive bacilli [6]) | Bacteria G − b (Gram-negative bacilli), 24 hours-culture (Gram-negative bacilli [7]) | Bacteria G − b (Gram-negative bacilli), 48 hours-culture (Gram-negative bacilli [7]) | Bacteria G + c (Gram-positive cocci), 24 hours-culture (Gram-positive cocci [8]) | Bacteria G + c (Gram-positive cocci), 48 hours-culture (Gram-positive cocci [8]) | pH, 24 hours culture [9] | pH, 48 hours culture [9] | Bacteria G + b (Gram-positive bacilli), 48 hours-culture (Gram-positive bacilli [10]) | Bacteria G − b (Gram-negative bacilli), 24 hours-culture (Gram-negative bacilli [11]) | Bacteria G − b (Gram-negative bacilli), 48 hours-culture (Gram-negative bacilli [11]) | also measured |
| --- | --- | --- | --- | --- | --- | --- | --- | --- | --- | --- | --- | --- | --- | --- | --- | --- | --- | --- | --- | --- | --- |
| OC[C@H]1O[C@H](O[C@H]2[C@H](O)[C@@H](O)[C@H](O)O[C@@H]2CO)[C@H](O)[C@@H](O)[C@@H]1O [Maltose, maltose] | G − c, − (No or less than one bacterium per field of version under oil-immersion lens) | G − c, − (No or less than one bacterium per field of version under oil-immersion lens) | G + b, +++ (About 100 bacteria or more per field vision under oil-immersion lens, even uncountable) | G + b, ++ (About 10-99 bacteria per field of vision under oil-immersion lens) | G − b, ++ (About 10-99 bacteria per field of vision under oil-immersion lens) | G + c, + (1-9 bacteria per field of vision under oil-immersion lens) | G + c, ++ (About 10-99 bacteria per field of vision under oil-immersion lens) | G − c, − (No or less than one bacterium per field of version under oil-immersion lens) | G − c, − (No or less than one bacterium per field of version under oil-immersion lens) | G + b, + (1-9 bacteria per field of vision under oil-immersion lens) | G + b, +++ (About 100 bacteria or more per field vision under oil-immersion lens, even uncountable) | G − b, +++ (About 100 bacteria or more per field vision under oil-immersion lens, even uncountable) | G − b, + (1-9 bacteria per field of vision under oil-immersion lens) | G + c, − (No or less than one bacterium per field of version under oil-immersion lens) | G + c, + (1-9 bacteria per field of vision under oil-immersion lens) | 5.4 | 5.1 | G + b, +++ (About 100 bacteria or more per field vision under oil-immersion lens, even uncountable) | G − b, +++ (About 100 bacteria or more per field vision under oil-immersion lens, even uncountable) | G − b, ++ (About 10-99 bacteria per field of vision under oil-immersion lens) | Bacteria G − b (Gram-negative bacilli), 24 hours culture (Gram-negative bacilli [3]; 24 hours): G − b, + (1-9 bacteria per field of vision under oil-immersion lens); Bacteria G + b (Gram-positive bacilli), 24 hours-culture (Gram-positive bacilli [10]; 24 hours): G + b, ++ (About 10-99 bacteria per field of vision under oil-immersion lens); Bacteria G + c (Gram-positive cocci), 24 hours-culture (Gram-positive cocci [12]): G + c, ++ (About 10-99 bacteria per field of vision under oil-immersion lens); Bacteria G + c (Gram-positive cocci), 48 hours-culture (Gram-positive cocci [12]): G + c, + (1-9 bacteria per field of vision under oil-immersion lens) |
| OC[C@H]1O[C@@](CO)(O[C@H]2O[C@H](CO)[C@@H](O)[C@H](O)[C@H]2O)[C@@H](O)[C@@H]1O [Sucrose, sucrose] | G − c, − (No or less than one bacterium per field of version under oil-immersion lens) | G − c, − (No or less than one bacterium per field of version under oil-immersion lens) | G + b, ++ (About 10-99 bacteria per field of vision under oil-immersion lens) | G + b, ++ (About 10-99 bacteria per field of vision under oil-immersion lens) | G − b, ++ (About 10-99 bacteria per field of vision under oil-immersion lens) | G + c, + (1-9 bacteria per field of vision under oil-immersion lens) | G + c, ++ (About 10-99 bacteria per field of vision under oil-immersion lens) | G − c, − (No or less than one bacterium per field of version under oil-immersion lens) | G − c, − (No or less than one bacterium per field of version under oil-immersion lens) | G + b, + (1-9 bacteria per field of vision under oil-immersion lens) | G + b, + (1-9 bacteria per field of vision under oil-immersion lens) | G − b, + (1-9 bacteria per field of vision under oil-immersion lens) | G − b, ++ (About 10-99 bacteria per field of vision under oil-immersion lens) | G + c, + (1-9 bacteria per field of vision under oil-immersion lens) | G + c, + (1-9 bacteria per field of vision under oil-immersion lens) | 6.2 | 5.4 | G + b, +++ (About 100 bacteria or more per field vision under oil-immersion lens, even uncountable) | G − b, + (1-9 bacteria per field of vision under oil-immersion lens) | G − b, ++ (About 10-99 bacteria per field of vision under oil-immersion lens) | Bacteria G + c (Gram-positive cocci), 24 hours-culture (Gram-positive cocci [12]): G + c, + (1-9 bacteria per field of vision under oil-immersion lens); Bacteria G + c (Gram-positive cocci), 48 hours-culture (Gram-positive cocci [12]): G + c, + (1-9 bacteria per field of vision under oil-immersion lens) |
